In patent US20230138327A1, “COMPOSITIONS AND METHODS CONTAINING REDUCED NICOTINAMIDE RIBOSIDE FOR PREVENTION AND TREATMENT OF PANCREATIC DISEASES AND CONDITIONS” (SOCIETE DES PRODUITS NESTLE S.A., priority 2020, published 2023):

Assays:
Stability in water = assay type: physicochemical; conditions: pH=7, at room temperature
Protocol: (§1) NR degradation to NAM has been proposed as a limitation for its pharmacological efficacy. To evaluate whether NRH was also susceptible to degradation to NAM, we spiked NRH or NR in isolated mouse plasma. […] We also tested the stability of NRH in other matrixes. […] Finally, we also certified NRH stability in water (pH=7, at room temperature) for 48 h.

C2C12 myotubes = test: NAD+ levels in C2C12 myotubes after NRH treatment; assay type: cell-based
3T3 fibroblasts = test: NAD+ levels in 3T3 fibroblasts after NRH treatment; assay type: cell-based
INS1-cells = test: NAD+ levels in INS1-cells after NRH treatment; assay type: cell-based
mice [1] = test: Pancreas NAD+ levels in mice after intraperitoneal administration; assay type: in vivo; conditions: I.P. 500 mg/kg, after 1 hour
Protocol: 8 week-old C57BI/6NTac mice were intraperitoneally administered with either saline (as vehicle) or NRH (500 mg/kg). After 1 hour, pancreas NAD+ was measured using commercial kits. All results are expressed as mean+/−SEM of n=4 mice per group, corrected by weight of tissue.

INS-1E cells [2] = test: Inflammatory cytokine (IL-1 b)-induced pancreatic β-cell death, cell viability; assay type: cell-based; conditions: IL-1 b 0.25 ng/ml, 24 hours, NRH 0.1 mM
Protocol: (§2) INS-1E cells were treated with Interleukin 1 b (IL-1 b; 0.25 ng/ml) for 24 hrs in the presence or absence of NRH (0.1 mM). PBS was used as vehicle for NRH. After 24 hrs, cell viability was evaluated by luminescence using a commercial kit (Cell Title-Glow; Promega). All results are expressed as mean+/−SEM of n=6 experiments. * indicates P<0.05 vs. the respective vehicle treated group.
(§3) INS-1E cells were treated with Interleukin 1 b (IL-1 b; 0.25 ng/ml) for 24 hours in the presence or absence of NRH (0.1 mM). PBS was used as vehicle for NRH. After 24 hours, cell viability was evaluated by luminescence using a commercial kit (Cell Title-Glow; Promega).

[3] = Circulating NRH, NR and NAM in mice after intraperitoneal injection; assay type: in vivo
Description: (§4) Levels of NRH and other NAD-related metabolites in biological samples were obtained by using a cold liquid-liquid extraction using a mixture of methanol:water:chloroform in 5:3:5 (v/v), from which the polar phase was recovered for hydrophilic interaction ultra-high performance liquid chromatography mass spectrometry (UHPLC-MS) analysis. The UHPLC consisted of a binary pump, a cooled autosampler, and a column oven (DIONEX Ultimate 3000 UHPLC+ Focused, Thermo Scientific), connected to a triple quadrupole spectrometer (TSQ Vantage, Thermo Scientific) equipped with a heated electrospray ionisation (H-ESI) source. Of each sample, 2 μL were injected into the analytical column (2.1 mm×150 mm, 5 μm pore size, 200 Å HILICON iHILIC®-Fusion(P)), guarded by a pre-column (2.1 mm×20 mm, 200 Å HILICON iHILIC®-Fusion(P) Guard Kit) operating at 35° C. The mobile phase (10 mM ammonium acetate at pH 9, A, and acetonitrile, B) was pumped at 0.25 mL/min flow rate over a linear gradient of decreasing organic solvent (0.5-16 min, 90-25% B), followed by re-equilibration for a total run time of 30 min. The MS operated in positive mode at 3500 V with multiple reaction monitoring (MRM). The software Xcalibur v4.1.31.9 (Thermo Scientific) was used for instrument control, data acquisition and processing. Retention time and mass detection was confirmed by authentic standards.
The above results prompted us to test whether NRH could act as an effective NAD+ precursor in vivo. For this, we first intraperitoneally (IP) injected mice with either NR or NRH (500 mg/kg). […] Importantly, NRH was detectable in circulation after IP injection.

[4] = tested on: primary hepatocytes from control or NRK1 knockout (NRK1KO) mice; test: NAD+ levels in primary hepatocytes from control or NRK1 knockout mice; assay type: cell-based; conditions: 1 hour of treatment
Description: The action of NRH was also NAMPT-independent, based on experiments using FK866, a NAMPT inhibitor. If NRH led to NAD+ synthesis via the formation of NMNH, this hypothetical path would require the phosphorylation of NRH into NMNH. Given the essential and rate-limiting role of NRK1 in NR phosphorylation, we wondered whether the ability of NRH to boost NAD+ levels was NRK1 dependent. To answer this question, we evaluated NRH action in primary hepatocytes from either control or NRK1 knockout (NRK1KO) mice. […] Further, they rule out the possibility that NRH-induced NAD+ […] is driven by NRH oxidation into NR.

mice [5] = test: Hepatic NAD+ levels in mice after oral administration; assay type: in vivo
Protocol: 8 week-old C57BI/6NTac mice were orally gavaged with either saline (as vehicle), NR (500 mg/kg) or NRH (500 mg/kg). After 1 hour, liver, skeletal muscle and kidney NAD levels were evaluated. All results are expressed as mean +/−SEM of n=5 mice per group. * indicates statistical difference at p<0.05 vs. vs. saline-treated mice. #indicates statistical difference at p<0.05 vs. NR treated mice.
(§5) Oral administration of NRH led to very similar results to those observed after IP administration. […] NRH was detectable in plasma 1 h after oral administration. In contrast, NR levels were undetectable at 1 h after NR administration.

[6] = Protocol: as §1
INS-1E cells [7] = test: Lipotoxicity (palmitic acid)-induced pancreatic β-cell death, cell viability; assay type: cell-based; conditions: palmitic acid 0.4 mM, 24 hours, NRH 0.1 mM
Protocol: as §2, with “BSA-conjugated palmitic acid (0.4 mM)” for “Interleukin 1 b (IL-1 b; 0.25 ng/ml)”, “NRH, while fatty-acid free BSA was used as control for palmited treatment.” for “NRH.”, “n=8” for “n=6”
as §3, with “BSA-conjugated palmitic acid (0.4 mM)” for “Interleukin 1 b (IL-1 b; 0.25 ng/ml)”, “NRH, while fatty-acid free BSA was used as control for palmited treatment.” for “NRH.”

[8] = Plasma NRH, NR and NAM in mice after oral administration; assay type: in vivo
Description: as §4, §5

NC(=O)C1=CN([C@@H]2O[C@H](CO)[C@@H](O)[C@H]2O)C=CC1 [NRH]
Stability in water, duration (Stability in water): 48 h | NAD+ levels (C2C12 myotubes): highly elevated | NAD+ levels (3T3 fibroblasts): highly elevated | NAD+ levels (INS1-cells): highly elevated | NAD+ levels in the pancreas (mice [1]): efficiently increases NAD+ levels | Cell viability under Interleukin 1 b (INS-1E cells [2]): protects against inflammatory citokyne-induced pancreatic β-cell death | NAM levels in circulation ([3]; mice, IP 500 mg/kg): only a very mild increase | NR in circulation ([3]; mouse, in vivo, ip): much higher levels than those detected after NR injection itself | NRH in circulation ([3]; mouse, in vivo, ip): detectable | NAD+ levels in NRK1KO derived primary hepatocytes [4]: not affected by NRK1 deficiency | Effect on hepatic NAD+ levels compared with NR (mice [5]): more potent effect on hepatic NAD+ levels than NR | Degradation to NAM in FBS supplemented media [6]: did not degrade to NAM | Cell viability under BSA-conjugated palmitic acid (INS-1E cells [7]): protects against lipotoxicity-induced pancreatic β-cell death | NRH concentration in plasma ([8]; mice, after oral gavage): 11.16 ± 1.74 µM | Administered compound in plasma ([8]; mouse, in vivo, po): detectable
